These results are taken from ChEMBL document CHEMBL1129823, “Cytotoxicity and actin depolymerizing activity of aplyronine A, a potent antitumor macrolide of marine origin, and the natural and artificial analogs” (Bioorg Med Chem Lett, 1997).

Each structure is given as a SMILES string. Converted amounts (≈) assume the structure as drawn. The source made the active and inactive calls. No cut-off for these calls is given here.

The species named for experiment [1] is Oryctolagus cuniculus. Kind of experiment: Relative potency was calculated from the Actin depolymerizing activity (aplyronine A = 100). In kind it is functional.
Experiment [2] is described as follows: F-Actin (40 uM) depolymerizing activity which was monitored by measuring flow birefringence. In kind it is functional, Oryctolagus cuniculus.
Experiment [3] deals with HeLa. Kind of experiment: Evaluated for the cytotoxicity against HeLa S3 cells. In kind it is functional, cell-based. Conditions: Homo sapiens.
In experiment [4] the test system is HeLa. Kind of experiment: Relative potency was calculated from the cytotoxicity against HeLa S3 cells (aplyronine A = 100). Type of experiment: functional, Homo sapiens.
The species entered for experiment [5] is Oryctolagus cuniculus. Nature of the experiment: Relative potency was calculated from the Actin depolymerizing activity (aplyronine A = 100); Inactive. In kind it is functional.
Experiment [6] can be described thus: Compound was evaluated for the F-Actin (40 uM) depolymerizing activity which was monitored by measuring flow birefringence (Actin was extracted in cold water from the acetone-dried powder of rabbit skeletal muscle); Inactive. Type of experiment: functional, tissue-based, Oryctolagus cuniculus, Muscle tissue.
Experiment [7] can be described thus: Compound was evaluated for the F-Actin (40 uM) depolymerizing activity which was monitored by measuring flow birefringence (Actin was extracted in cold water from the acetone-dried powder of rabbit skeletal muscle). Type of experiment: functional, tissue-based, Oryctolagus cuniculus, Muscle tissue.
Experiment [8] is described as follows: Compound was evaluated for the F-Actin (40 uM) depolymerizing activity* which was monitored by measuring flow birefringence (Actin was extracted in cold water from the acetone-dried powder of rabbit skeletal muscle). Type of experiment: functional, tissue-based, Oryctolagus cuniculus, Muscle tissue.

For `COCC(C(=O)O[C@@H]1C/C=C/C=C/C(=O)O[C@H]([C@@H](C)[C@@H](O)[C@@H](C)CC[C@@H](O)[C@H](C)[C@H](O)[C@H](C)CCO)C/C=C/[C@H](OC)C[C@H](C)C/C=C/[C@@H](OC)CC[C@@H](C)[C@@H](O)[C@@H]1C)N(C)C` (stereo not given in full), the Relative potency was 16 in experiment [1] and 0.58 in experiment [4]. Besides, the 50% inhibitory concentration (IC50) in experiment [2] was 190 µM; in experiment [3], 0.083 µg/mL (≈ 0.0941 µM).

In turn, `COCC(C(=O)O[C@@H]1C/C=C/C=C/C(=O)OCC/C=C/[C@H](OC)C[C@H](C)C/C=C(\C)[C@@H](OC)CC[C@@H](C)[C@@H](O)[C@@H]1C)N(C)C` (stereo not given in full) had an IC50 in experiment [3] of 2.1 µg/mL (≈ 3.38 µM). In experiment [4], the Relative potency is reported as 0.023.

For `COCC(C(=O)O[C@@H]1C/C=C/C=C/C(=O)O[C@H]([C@@H](C)[C@@H](O)[C@@H](C)CC[C@@H](O)[C@H](C)[C@H](OC(C)=O)[C@H](C)CCO)C/C=C/[C@H](OC)C[C@H](C)C/C=C/[C@@H](OC)CC[C@@H](C)[C@@H](O)[C@@H]1C)N(C)C` (stereo not given in full), the Relative potency in experiment [1] is 86; in experiment [4] it was 1.3. The IC50 in experiment [2] turned out to be 36 µM; in experiment [3], 0.037 µg/mL (≈ 0.04 µM).

`COCC(C(=O)O[C@@H]1CCCCCC(=O)O[C@H]([C@@H](C)[C@@H](O)[C@@H](C)CC[C@@H](OC(=O)C(C)N(C)C)[C@H](C)[C@H](OC(C)=O)[C@H](C)CCO)C/C=C/[C@H](OC)C[C@H](C)C/C=C(\C)[C@@H](OC)CC[C@@H](C)[C@@H](O)[C@@H]1C)N(C)C` (stereo not given in full): the Relative potency was 44 in experiment [1] and 0.84 in experiment [4]. Further, the results for the IC50 in experiment [2] and in experiment [3] were 70 µM and 0.057 µg/mL (≈ 0.0547 µM), respectively.

`COCC(C(=O)O[C@@H]1C/C=C/C=C/C(=O)O[C@H]([C@@H](C)[C@@H](O)[C@@H](C)CC[C@@H](O)[C@H](C)[C@H](OC(C)=O)[C@H](C)/C=C/N(C)C=O)C/C=C/[C@H](OC)C[C@H](C)C/C=C(\C)[C@@H](OC)CC[C@@H](C)[C@@H](O)[C@@H]1C)N(C)C` (stereo not given in full): the values for the Relative potency in experiment [1] and in experiment [4] were 86 and 47, respectively. In addition, the IC50 was 35 µM in experiment [2] and 0.00103 µg/mL (≈ 0.00105 µM) in experiment [3].

As for `COCC(C(=O)O[C@@H]1C/C=C/C=C/C(=O)OCC/C=C/[C@H](OC)C[C@H](C)C/C=C/[C@@H](OC)CC[C@@H](C)[C@@H](O)[C@@H]1C)N(C)C` (stereo not given in full), in experiment [5], the Relative potency entry is “inactive”. Also, the IC50 entry in experiment [6] is reported as “Not Active”.

With `COCC(C(=O)O[C@H]1[C@H](C)[C@H](O)C/C=C/C=C/C(=O)O[C@H]([C@@H](C)[C@@H](O)[C@@H](C)CC[C@@H](OC(=O)C(C)N(C)C)[C@H](C)[C@H](OC(C)=O)[C@H](C)/C=C/N(C)C=O)C/C=C/[C@H](OC)C[C@H](C)C/C=C(\C)[C@@H](OC)CC[C@H]1C)N(C)C` (stereo not given in full) [APLYRONINE B], the Relative potency in experiment [1] was 94; in experiment [4], 15. The IC50 worked out at 33 µM in experiment [2] and 0.00311 µg/mL (≈ 0.00289 µM) in experiment [3].

For the molecule `COCC(C(=O)O[C@@H]1C/C=C/C=C/C(=O)O[C@H]([C@@H](C)[C@@H](O)[C@@H](C)CO)C/C=C/[C@H](OC)C[C@H](C)C/C=C/[C@@H](OC)CC[C@@H](C)[C@@H](O)[C@@H]1C)N(C)C` (stereo not given in full), the Relative potency was 0.69 in experiment [1] and below 0.02 in experiment [4]. Also, the half-inhibitory concentration (IC50) is above 2 µg/mL in experiment [3] and 4500 µM in experiment [7].

Consider `COCC(C(=O)O[C@@H]1C/C=C/C=C/C(=O)O[C@H]([C@@H](C)[C@@H](OC(C)=O)[C@@H](C)CC[C@@H](OC(=O)C(C)N(C)C)[C@H](C)[C@H](OC(C)=O)[C@H](C)/C=C/N(C)C=O)C/C=C/[C@H](OC)C[C@H](C)C/C=C(\C)[C@@H](OC)CC[C@@H](C)[C@@H](OC(C)=O)[C@@H]1C)N(C)C` (stereo not given in full), for which the Relative potency in experiment [1] is 54; in experiment [4] it was 0.22. The IC50 in experiment [2] is 57 µM; in experiment [3] it was 0.216 µg/mL (≈ 0.186 µM).

With `COCC(C(=O)O[C@@H]1C/C=C/C=C/C(=O)O[C@H]([C@@H](C)[C@@H](O)[C@@H](C)CC[C@@H](OC(=O)C(C)N(C)C)[C@H](C)[C@H](OC(C)=O)[C@H](C)CCO)C/C=C/[C@H](OC)C[C@H](C)C/C=C/[C@@H](OC)CC[C@@H](C)[C@@H](O)[C@@H]1C)N(C)C` (stereo not given in full), the Relative potency in experiment [1] is 82; in experiment [4] it was 18. Also, the values for the IC50 in experiment [2] and in experiment [3] were 38 µM and 0.0026 µg/mL (≈ 0.00254 µM), respectively.

Consider `COCC(C(=O)O[C@@H]1C/C=C/C=C/C(=O)O[C@H]([C@@H](C)[C@@H](O)[C@@H](C)CC[C@@H](OC(=O)C(C)N(C)C)[C@H](C)[C@H](OC(C)=O)[C@H](C)/C=C/N(C)C=O)C/C=C/[C@H](OC)C[C@H](C)C/C=C(\C)[C@@H](OC)CC[C@@H](C)[C@@H](O)[C@@H]1C)N(C)C` (stereo not given in full) [APLYRONINE A], for which the Relative potency in experiment [1] and in experiment [4] was 100 throughout. Moreover, the IC50 in experiment [2] is 31 µM; in experiment [3], 0.00048 µg/mL (≈ 0.000446 µM).

As for `COCC(C(=O)O[C@@H]1C/C=C/C=C/C(=O)O[C@H]([C@@H](C)[C@@H](O)[C@@H](C)CC[C@@H](OC(=O)C(C)N(C)C)[C@H](C)[C@H](OC(C)=O)[C@H](C)CCO)C/C=C/[C@H](OC)C[C@H](C)C/C=C(\C)[C@@H](OC)CC[C@@H](C)[C@@H](O)[C@@H]1C)N(C)C` (stereo not given in full), the Relative potency was 40 in experiment [1] and 28 in experiment [4]. The IC50 worked out at 78 µM in experiment [2] and 0.00172 µg/mL (≈ 0.00166 µM) in experiment [3].

Regarding `CO[C@H]1CC[C@@H](C)[C@@H](O)[C@H](C)[C@H](O)C/C=C/C=C/C(=O)O[C@H]([C@@H](C)[C@@H](O)[C@@H](C)CC[C@@H](OC(=O)C(C)N(C)C)[C@H](C)[C@H](OC(C)=O)[C@H](C)/C=C/N(C)C=O)C/C=C/[C@H](OC)C[C@H](C)C/C=C/1C` (stereo not given in full) [APLYRONINE C], the Relative potency in experiment [1] was 97; in experiment [4], 2.3. Also, the IC50 in experiment [2] is 32 µM; in experiment [3] it was 0.0212 µg/mL (≈ 0.0224 µM).

Take `CO[C@H]1CC[C@@H](C)[C@@H](O)[C@H](C)[C@H](O)C/C=C/C=C/C(=O)O[C@H]([C@@H](C)[C@@H](O)[C@@H](C)CC[C@@H](O)[C@H](C)[C@H](OC(C)=O)[C@H](C)/C=C/N(C)C=O)C/C=C/[C@H](OC)C[C@H](C)C/C=C/1C`: the Relative potency in experiment [1] was 86; in experiment [4], 0.42. Further, the IC50 in experiment [2] worked out at 35 µM; in experiment [3], 0.113 µg/mL (≈ 0.133 µM).

For `CO[C@@H]1/C=C/C[C@@H](C)C[C@@H](OC)/C=C/C[C@@H]([C@@H](C)[C@@H](O)[C@@H](C)CC[C@@H](OC(=O)CN(C)C)[C@H](C)[C@H](OC(C)=O)[C@H](C)CCO)OC(=O)/C=C/C=C/C[C@@H](OC(=O)CN(C)C)[C@@H](C)[C@H](O)[C@H](C)CC1`, the Relative potency in experiment [1] was 63; in experiment [4], below 0.02. Further, the IC50 in experiment [2] was 49 µM; in experiment [3], above 2 µg/mL.

For the molecule `C[C@H]([C@H](O)[C@H](C)CCO)[C@H](O)CC[C@H](C)[C@H](O)[C@H](C)[C@@H](O)CCO`, the IC50 in experiment [8] stood at 7600 µM. Besides, in experiment [1], the Relative potency was 0.41.

For `COCC(C(=O)O[C@@H]1C/C=C/C=C/C(=O)O[C@H]([C@@H](C)[C@@H](O)[C@@H](C)COC(=O)C(C)N(C)C)C/C=C/[C@H](OC)C[C@H](C)C/C=C/[C@@H](OC)CC[C@@H](C)[C@@H](O)[C@@H]1C)N(C)C` (stereo not given in full), the Relative potency in experiment [1] was 1.7. For the same molecule, the IC50 in experiment [2] was found to be 1800 µM.
